The results in this text go back to patent publication US7384914B2 (Emisphere Technologies, Inc., priority 2003, dated 2008).

Structures are written as SMILES.

A short description of data set [1]: Pharmacokinetic studies of 4-CNAB after oral administration in mice. Type of data set: in vivo.
The nature of data set [2]: Pharmacokinetic studies of 4-CNAB after oral administration in rats. Type of data set: in vivo.
Data set [3] is described as follows: Pharmacokinetic studies of 4-CNAB after oral administration in monkeys. Type of data set: in vivo.
For data set [4], the system named is primary molecular targets. Put plainly: Receptor binding screening assays.
The nature of another data set: Genotoxicity studies. Particulars: four genotoxicity studies.
The nature of data set [5]: 14-day oral repeated dose toxicity study in monkeys. As to conditions: rhesus monkey, in vivo, 14 days.
Description: In toxicology studies, 4-CNAB doses from 400 mg to 2000 mg were evaluated.
Data set [6] in a line: Open-label single-dose crossover study of oral Insulin/4-CNAB in type 2 diabetic subjects (fasting / standard meal). Type of data set: in vivo, human. An excerpt:
In the first part of the study, twenty-four human diabetic subjects (patients) of age 35-70 years, with elevated fasting blood glucose levels but in otherwise good general health on the basis of a medical history, physical examination and clinical laboratory studies, participated in the study and were studied in the overnight-fasted state on two occasions, separated by an interval of at least 7 days.

`O=C(O)CCCNC(=O)c1ccc(Cl)cc1O` [4-CNAB, monosodium N-(4-chlorosalicyloyl)-4-aminobutyrate]: the “4-CNAB absorption following oral administration” value in data set [1], in data set [2] and in data set [3] was “absorbed rapidly” throughout. In addition, the “activity in primary molecular targets in receptor binding screening assays” value in data set [4] is reported as “did not demonstrate potential activity”. The genotoxicity findings entry in the data set “Genotoxicity studies” is recorded as “no positive findings”. Moreover, the “highest proposed dose of 2000 mg 4-CNAB in man (<30 mg/kg) lower than the NOAEL in monkeys” value in data set [5] is given as 12-16 fold. Further, the “tolerability of 4-CNAB” value in data set [6] was “well tolerated”. Further, the “time of 4-CNAB concentration peak post administration” value in data set [6] (oral capsules) is reported as “about 30 minutes”.
